Assay results taken from ChEMBL document CHEMBL1150641, “Bryoanthrathiophene, a new antiangiogenic constituent from the bryozoan Watersipora subtorquata (d'Orbigny, 1852)” (J Nat Prod, 2002).

Experiments:
[1] = Antiangiogenic activity against BAEC assessed as inhibition of bFGF-induced cell proliferation in presence of 10% fetal bovine serum after 3 days by MTT assay; type: functional, Bos taurus
[2] = Antiangiogenic activity against BAEC assessed as inhibition of bFGF-induced cell proliferation after 3 days by MTT assay; type: functional, Bos taurus
[3] = system: BAEC; test: Reduction of tube formation in bFGF-induced BAEC at 20 nM by Matrigel based tube formation assay; type: functional, cell-based; conditions: Bos taurus, TDE = time-dependent effect

SMILES | IC50 [1] [µM] | IC50 [2] [µM] | Activity [3]
O=C1c2cccc(O)c2C(=O)c2c(O)cccc21 [DANTHRON] | 20.1 | 5.7 | 
COC(=O)c1sc2ccc(O)c3c2c1-c1cccc(O)c1C3=O | 25.8 | 2.2 | 
Cc1sc2ccc(O)c3c2c1-c1cccc(O)c1C3=O [BRYOANTHRATHIOPHENE] | 0.22 | 0.005 | tde
